Our source for the IC50 values is patent US20160122342A1, “ENHANCER OF ZESTE HOMOLOG 2 INHIBITORS” (GLAXOSMITHKLINE INTELLECTUAL PROPERTY (NO.2) LIMITED, priority 2013, published 2016).

Usually IC50 stands for the concentration that inhibits the measured activity by half.

Experiment [1] deals with T1, EZH2 within the PRC2 complex (Homo sapiens, UniProt Q15910).
T1 construct: FLAG; made in house; host or cells: Sf9 cells
Kind of experiment: Assay Protocol 1: EZH2 methyltransferase scintillation proximity assay, mononucleosome substrate. Format: biochemical. The settings on record: Assay Protocol 1; SPA, 3H-SAM, Histone H3 of mononucleosome purified from HeLa cells; 5-member PRC2 complex; read-out: EZH2 IC50. Here is the method:
Compounds contained herein were evaluated for their ability to inhibit the methyltransferase activity of EZH2 within the PRC2 complex. […] Mononucleosomes were captured on SPA beads and the resulting signal is read on a ViewLux plate reader. • 1. Prepare 10 mM stock of compounds from solid in 100% DMSO. • 2. […] Dispense 100 nL of compound from the dilution plate into reaction plates (Grenier Bio-One, 384-well, Cat#784075). Prepare the following solutions: • 1. 50 mM Tris-HCl, pH 8: Per 1 L of base buffer, combine 1 M Tris-HCl, pH 8 (50 mL) and distilled water (950 mL). • 2. 1× Assay Buffer: […] SPA Bead Suspension: […] Per 10 mL of 2× Substrate Solution, combine 1× Assay Buffer (9728.55 uL), 800 ug/mL mononucleosomes (125 uL), 1 mM cold SAM (4 uL), and 7.02 uM 3H-SAM (142.45 uL; 0.55 mCi/mL) to provide a final concentration of 5 ug/mL nucleosomes, 0.2 uM cold SAM, and 0.05 uM 3H-SAM. • 6. 2.67× Quench/Bead Mixture: Per 10 mL of 2.67× Quench/Bead Mixture, combine ddH2O (9358 uL), 10 mM cold SAM (267 uL), 40 mg/mL Bead Suspension (375 uL) to provide a final concentration of 100 uM cold SAM and 0.5 mg/mL SPA beads. • 1. Dispense 100 nL/well of 100× Compound to test wells (as noted above). • 2. […] • 1. Dispense 5 uL/well of 1× Assay Buffer to column 18 (low control reactions). • 2. Dispense 5 uL/well of 2× Enzyme Solution to columns 1-17, 19-24. • 3. Spin assay plates for ˜1 minute at 500 rpm. • 4. Stack the assay plates, covering the top plate. • 5. Incubate the compound/DMSO with the enzyme for 30 minutes at room temperature. • 6. Dispense 5 uL/well of 2× Substrate Solution to columns 1-24. • 7. Spin assay plates for ˜1 minute at 500 rpm. • 8. Stack the assay plates, covering the top plate. • 9. Incubate the assay plates at room temperature for 1 hour. • 1. Dispense 5 uL/well of the 3× Quench/Bead Mixture to columns 1-24. • 2. Seal the top of each assay plate with adhesive TopSeal. • 3. Spin assay plates for ˜1 minute at 500 rpm. • 4. […] • 1. Read the assay plates on the Viewlux Plate Reader utilizing the 613 nm emission filter with a 300 s read time. Reagent addition can be done manually or with automated liquid handler. The final DMSO concentration in this assay is 1%. The positive control is in column 6; negative control is in column 18. Final starting concentration of compounds is 100 μM. Percent inhibition was calculated relative to the DMSO control for each compound concentration and the resulting values were fit using standard IC50 fitting parameters within the ABASE data fitting software package.

Experiment [2] addresses T1, EZH2 within the PRC2 complex. Kind of experiment: Assay Protocol 2: EZH2 methyltransferase scintillation proximity assay, biotinylated histone H3 peptide substrate. The settings on record: SPA, 3H-SAM, biotinylated unmethylated histone H3K27 peptide substrate, 5-member PRC2 complex. Format: biochemical. Summed up:
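PRC2-complexed EZH2 was run in 50 mM Tris-HCl pH 8, 2 mM MgCl2, 4 mM DTT and 0.001% Tween-20. It was added to a 2× mix of 10 uM biotinylated H3K27 peptide, 0.15 uM 3H-SAM and 2.85 uM cold SAM with streptavidin SPA beads. After 60 min at room temperature and a cold-SAM quench, IC50 was fitted from percent inhibition versus DMSO.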

Structures are written as SMILES.

T1 sequence (Q15910 whole entry): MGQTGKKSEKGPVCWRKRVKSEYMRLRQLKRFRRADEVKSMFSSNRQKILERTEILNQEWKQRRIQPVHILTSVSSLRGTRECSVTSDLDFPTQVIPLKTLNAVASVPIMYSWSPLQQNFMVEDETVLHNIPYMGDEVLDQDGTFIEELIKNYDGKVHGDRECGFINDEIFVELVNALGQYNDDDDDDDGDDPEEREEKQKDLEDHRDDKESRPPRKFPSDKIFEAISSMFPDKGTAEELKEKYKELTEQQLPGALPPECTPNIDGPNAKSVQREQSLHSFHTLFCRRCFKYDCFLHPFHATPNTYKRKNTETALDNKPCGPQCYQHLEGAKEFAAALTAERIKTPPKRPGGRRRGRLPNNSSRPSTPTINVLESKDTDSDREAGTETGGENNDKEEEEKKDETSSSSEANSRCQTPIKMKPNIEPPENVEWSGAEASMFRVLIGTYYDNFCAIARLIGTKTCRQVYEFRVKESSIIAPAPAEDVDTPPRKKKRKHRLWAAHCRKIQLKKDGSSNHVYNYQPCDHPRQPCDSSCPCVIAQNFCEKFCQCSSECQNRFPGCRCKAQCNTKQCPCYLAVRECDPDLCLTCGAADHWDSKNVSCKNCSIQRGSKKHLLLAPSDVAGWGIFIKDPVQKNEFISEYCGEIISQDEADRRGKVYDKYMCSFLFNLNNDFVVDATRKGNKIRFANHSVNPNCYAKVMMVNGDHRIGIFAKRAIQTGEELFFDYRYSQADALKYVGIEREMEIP
T1 sequence (O75530 whole entry partner): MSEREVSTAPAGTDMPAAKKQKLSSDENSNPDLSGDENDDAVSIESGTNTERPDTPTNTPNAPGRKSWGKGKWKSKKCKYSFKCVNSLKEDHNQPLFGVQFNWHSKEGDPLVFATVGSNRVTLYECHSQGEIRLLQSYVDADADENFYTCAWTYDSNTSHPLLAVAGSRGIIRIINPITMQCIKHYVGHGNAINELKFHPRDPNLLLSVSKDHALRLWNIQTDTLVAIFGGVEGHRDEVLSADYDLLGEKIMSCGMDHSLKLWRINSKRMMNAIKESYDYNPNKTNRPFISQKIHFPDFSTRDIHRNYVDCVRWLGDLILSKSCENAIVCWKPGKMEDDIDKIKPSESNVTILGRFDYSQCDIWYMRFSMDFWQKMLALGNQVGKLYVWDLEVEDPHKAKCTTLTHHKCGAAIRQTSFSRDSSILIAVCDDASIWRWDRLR
T1 sequence (Q15022 whole entry partner): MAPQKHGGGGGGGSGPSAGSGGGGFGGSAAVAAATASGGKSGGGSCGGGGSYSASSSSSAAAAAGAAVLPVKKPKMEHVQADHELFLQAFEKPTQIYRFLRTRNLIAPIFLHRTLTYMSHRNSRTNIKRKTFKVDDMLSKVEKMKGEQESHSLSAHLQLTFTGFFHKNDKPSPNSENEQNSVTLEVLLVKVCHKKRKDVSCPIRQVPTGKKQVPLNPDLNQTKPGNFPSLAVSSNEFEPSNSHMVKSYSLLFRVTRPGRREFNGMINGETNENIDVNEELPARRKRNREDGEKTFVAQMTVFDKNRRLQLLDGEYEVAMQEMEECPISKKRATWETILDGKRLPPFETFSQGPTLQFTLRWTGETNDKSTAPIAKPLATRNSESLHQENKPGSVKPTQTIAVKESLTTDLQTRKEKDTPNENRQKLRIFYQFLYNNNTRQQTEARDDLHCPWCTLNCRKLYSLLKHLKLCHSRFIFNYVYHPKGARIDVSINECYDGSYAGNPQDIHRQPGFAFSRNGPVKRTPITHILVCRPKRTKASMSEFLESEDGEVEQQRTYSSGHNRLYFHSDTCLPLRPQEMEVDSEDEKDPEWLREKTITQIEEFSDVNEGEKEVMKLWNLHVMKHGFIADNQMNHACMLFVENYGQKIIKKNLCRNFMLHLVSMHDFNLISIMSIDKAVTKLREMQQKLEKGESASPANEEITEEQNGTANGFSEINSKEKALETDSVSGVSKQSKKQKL
T1 sequence (Q09028 whole entry partner): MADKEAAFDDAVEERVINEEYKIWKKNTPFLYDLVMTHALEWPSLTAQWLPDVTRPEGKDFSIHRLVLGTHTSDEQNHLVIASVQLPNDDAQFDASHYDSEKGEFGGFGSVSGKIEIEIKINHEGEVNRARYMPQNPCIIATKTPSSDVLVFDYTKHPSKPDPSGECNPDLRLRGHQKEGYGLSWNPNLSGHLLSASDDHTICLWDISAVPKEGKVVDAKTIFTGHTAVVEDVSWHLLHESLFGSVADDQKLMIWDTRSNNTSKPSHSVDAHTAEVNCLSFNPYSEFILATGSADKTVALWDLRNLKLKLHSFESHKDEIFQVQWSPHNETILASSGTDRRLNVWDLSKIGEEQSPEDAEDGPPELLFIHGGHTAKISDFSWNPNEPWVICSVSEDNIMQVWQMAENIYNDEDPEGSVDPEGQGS
T1 sequence (Q6ZN18 whole entry partner): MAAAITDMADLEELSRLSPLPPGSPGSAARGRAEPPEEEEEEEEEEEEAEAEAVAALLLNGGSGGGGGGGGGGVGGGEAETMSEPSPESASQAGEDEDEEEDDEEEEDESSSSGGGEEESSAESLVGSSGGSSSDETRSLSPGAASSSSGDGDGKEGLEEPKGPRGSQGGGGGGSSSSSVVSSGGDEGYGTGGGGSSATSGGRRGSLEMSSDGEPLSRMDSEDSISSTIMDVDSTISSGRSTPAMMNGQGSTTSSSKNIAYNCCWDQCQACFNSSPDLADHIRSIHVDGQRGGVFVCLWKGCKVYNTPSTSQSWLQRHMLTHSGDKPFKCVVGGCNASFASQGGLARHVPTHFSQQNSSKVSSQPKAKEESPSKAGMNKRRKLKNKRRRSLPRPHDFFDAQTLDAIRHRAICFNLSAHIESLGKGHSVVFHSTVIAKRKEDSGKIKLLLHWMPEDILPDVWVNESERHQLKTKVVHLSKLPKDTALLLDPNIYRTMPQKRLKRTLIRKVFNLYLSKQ

As for `CCN(c1cccc2c1C/C=C/CCCc1cc(C)[nH]c(=O)c1CNC2=O)C1CCOCC1` [Example 19, (E)-11-(ethyl(tetrahydro-2H-pyran-4-yl)amino)-3-methyl-5,6,7,10,16,17-hexahydro-1H-benzo[c]pyrido[4,3-k][1]azacyclotridecine-1,15(2H)-dione], the IC50 in experiment [1] was 40 nM; in experiment [2], 79 nM.

As for `CCN(c1cccc2c1CCCCCCc1cc(C)[nH]c(=O)c1CNC2=O)C1CCOCC1` [Example 20, 11-(ethyl(tetrahydro-2H-pyran-4-yl)amino)-3-methyl-5,6,7,8,9,10,16,17-octahydro-1H-benzo[c]pyrido[4,3-k][1]azacyclotridecine-1,15(2H)-dione], the IC50 in experiment [1] was 25 nM; in experiment [2], 1000 nM.

Turning to `CCN(c1cccc2c1C/C=C\CCCc1cc(C)[nH]c(=O)c1CNC2=O)C1CCOCC1` [Example 21, (Z)-11-(ethyl(tetrahydro-2H-pyran-4-yl)amino)-3-methyl-5,6,7,10,16,17-hexahydro-1H-benzo[c]pyrido[4,3-k][1]azacyclotridecine-1,15(2H)-dione], the IC50 was 100 nM in experiment [1] and 398 nM in experiment [2].

Take `CCN(c1cccc2c1C/C=C/CCc1cc(C)[nH]c(=O)c1CNC2=O)C1CCC(F)(F)CC1` [Example 30, (E)-10-((4,4-difluorocyclohexyl)(ethyl)amino)-3-methyl-5,6,15,16-tetrahydrobenzo[c]pyrido[4,3-j][1]azacyclododecine-1,14(2H,9H)-dione]: the IC50 in experiment [1] was determined as 16 nM; in experiment [2], 79 nM.

`CCN(c1cccc2c1C/C=C/CCc1cc(C)[nH]c(=O)c1CNC2=O)C1CCNCC1` [Example 31, (E)-10-(ethyl(piperidin-4-yl)amino)-3-methyl-5,6,15,16-tetrahydrobenzo[c]pyrido[4,3-j][1]azacyclododecine-1,14(2H,9H)-dione]: the IC50 in experiment [1] was 13 nM; in experiment [2], 200 nM.

As to `CCN(c1cccc2c1C/C=C/CCc1cc(C)[nH]c(=O)c1CNC2=O)C1CCN(C(C)C)CC1` [Example 32, (E)-10-(ethyl(1-isopropylpiperidin-4-yl)amino)-3-methyl-5,6,15,16-tetrahydrobenzo[c]pyrido[4,3-j][1]azacyclododecine-1,14(2H,9H)-dione], the IC50 in experiment [1] worked out at 50 nM; in experiment [2], 158 nM.

For `CCN(c1cccc2c1C/C=C/CCc1cc(C)[nH]c(=O)c1CNC2=O)C1CCN(C)CC1` [Example 33, (E)-10-(ethyl(1-methylpiperidin-4-yl)amino)-3-methyl-5,6,15,16-tetrahydrobenzo[c]pyrido[4,3-j][1]azacyclododecine-1,14(2H,9H)-dione], the IC50 worked out at 40 nM in experiment [1] and 200 nM in experiment [2].

Turning to `CCN(c1cccc2c1C/C=C/CCc1cc(C)[nH]c(=O)c1CNC2=O)C1CCN(S(C)(=O)=O)CC1` [Example 34, (E)-10-(ethyl(1-(methylsulfonyl)piperidin-4-yl)amino)-3-methyl-5,6,15,16-tetrahydrobenzo[c]pyrido[4,3-j][1]azacyclododecine-1,14(2H,9H)-dione], the half-inhibitory concentration (IC50) in experiment [1] is 63 nM; in experiment [2], 126 nM.

Regarding `CCN(c1cccc2c1C/C=C/CCc1cc(C)[nH]c(=O)c1CNC2=O)C1CCN(CCO)CC1` [Example 35, (E)-10-(ethyl(1-(2-hydroxyethyl)piperidin-4-yl)amino)-3-methyl-5,6,15,16-tetrahydrobenzo[c]pyrido[4,3-j][1]azacyclododecine-1,14(2H,9H)-dione], the IC50 in experiment [1] was found to be 40 nM; in experiment [2], 200 nM.

On to `CCN(c1cccc2c1C/C=C/CCc1cc(C)[nH]c(=O)c1CNC2=O)[C@H]1CC[C@H](N)CC1` [Example 36, (E)-10-((trans-4-aminocyclohexyl)(ethyl)amino)-3-methyl-5,6,15,16-tetrahydrobenzo[c]pyrido[4,3-j][1]azacyclododecine-1,14(2H,9H)-dione], for which the IC50 stood at 16 nM in experiment [1] and 126 nM in experiment [2].
